Test results published in ChEMBL document CHEMBL3039007, “Structure-based identification of OATP1B1/3 inhibitors” (Mol Pharmacol, 2013).

Key:
[1] = molecular target: T1, Solute carrier organic anion transporter family member 1B1 (Homo sapiens, UniProt Q9Y6L6); conditions: chinese hamster, cho, 10 µM
T1 sequence (Q9Y6L6 whole entry): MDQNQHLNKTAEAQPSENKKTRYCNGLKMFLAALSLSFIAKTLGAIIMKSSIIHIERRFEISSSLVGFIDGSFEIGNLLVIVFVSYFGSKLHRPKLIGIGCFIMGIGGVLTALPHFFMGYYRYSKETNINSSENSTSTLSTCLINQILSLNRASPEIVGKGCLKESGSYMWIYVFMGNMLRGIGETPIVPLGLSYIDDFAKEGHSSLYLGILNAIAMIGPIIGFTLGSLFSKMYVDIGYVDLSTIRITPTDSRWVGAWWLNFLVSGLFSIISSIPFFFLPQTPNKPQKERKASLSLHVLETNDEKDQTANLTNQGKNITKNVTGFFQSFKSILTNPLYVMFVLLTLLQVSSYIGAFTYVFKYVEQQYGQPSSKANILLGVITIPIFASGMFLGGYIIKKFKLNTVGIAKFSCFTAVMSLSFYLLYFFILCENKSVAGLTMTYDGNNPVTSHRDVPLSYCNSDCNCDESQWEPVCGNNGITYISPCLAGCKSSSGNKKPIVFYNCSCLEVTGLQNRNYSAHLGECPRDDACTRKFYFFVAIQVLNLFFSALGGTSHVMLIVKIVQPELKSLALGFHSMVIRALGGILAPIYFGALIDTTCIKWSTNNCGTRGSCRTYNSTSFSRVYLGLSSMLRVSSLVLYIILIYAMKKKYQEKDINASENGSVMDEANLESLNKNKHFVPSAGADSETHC

[2] = molecular target: T2, Solute carrier organic anion transporter family member 1B3 (Homo sapiens, UniProt Q9NPD5); conditions: chinese hamster, cho, 10 µM
T2 sequence (Q9NPD5 whole entry): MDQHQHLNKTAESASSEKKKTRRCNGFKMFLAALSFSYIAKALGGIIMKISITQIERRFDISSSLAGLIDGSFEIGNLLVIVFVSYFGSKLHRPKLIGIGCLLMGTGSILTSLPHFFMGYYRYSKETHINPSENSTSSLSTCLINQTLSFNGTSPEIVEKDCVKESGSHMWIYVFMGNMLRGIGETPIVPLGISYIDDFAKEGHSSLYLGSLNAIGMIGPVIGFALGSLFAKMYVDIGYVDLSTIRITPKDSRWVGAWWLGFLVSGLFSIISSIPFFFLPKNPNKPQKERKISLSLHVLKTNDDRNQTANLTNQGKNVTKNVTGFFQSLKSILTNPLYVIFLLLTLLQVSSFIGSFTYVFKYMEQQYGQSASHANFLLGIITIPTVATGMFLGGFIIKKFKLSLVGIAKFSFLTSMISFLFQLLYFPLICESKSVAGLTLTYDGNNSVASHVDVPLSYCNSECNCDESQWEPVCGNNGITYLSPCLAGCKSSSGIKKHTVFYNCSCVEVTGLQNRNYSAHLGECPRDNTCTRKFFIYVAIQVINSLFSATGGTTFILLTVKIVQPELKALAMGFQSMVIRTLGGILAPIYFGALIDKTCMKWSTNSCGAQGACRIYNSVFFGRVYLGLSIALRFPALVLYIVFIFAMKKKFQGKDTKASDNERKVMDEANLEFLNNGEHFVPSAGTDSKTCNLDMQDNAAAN

| SMILES | residual activity [1] | residual activity [2] |
| --- | --- | --- |
| CN[C@@H](C)[C@@H](O)c1ccccc1.Cl [PSEUDOEPHEDRINE HYDROCHLORIDE] | 86.1% | 102.7% |
| CC1=CCc2c(cc3oc(C)cc(=O)c3c2O)OC1 [PTAEROXYLIN] | 104.1% | 109.4% |
| Nc1nc2ncc(C(=O)O)nc2c(=O)[nH]1 [PTERIN-6-CARBOXYLIC ACID] | 102.1% | 99.97% |
| C/C=C(/C)C(=O)O[C@@H]1c2c(ccc3ccc(=O)oc23)OC(C)(C)[C@@H]1OC(C)=O [PTERYXIN] | 84.8% | 114.3% |
| COc1ccc(C[C@H](N)C(=O)N[C@H]2[C@@H](O)[C@H](n3cnc4c(N(C)C)ncnc43)O[C@@H]2CO)cc1.Cl.Cl [PUROMYCIN HYDROCHLORIDE] | 95.86% | 116.6% |
| O=C1c2ccccc2C(=O)c2c(O)c(O)cc(O)c21 [PURPURIN] | 100.1% | 98.68% |
| O=c1c(O)cccc2cc(O)c(O)c(O)c12 [PURPUROGALLIN] | 65.05% | 82.24% |
| Cl.Cl.NCCCCN [PUTRESCINE DIHYDROCHLORIDE] | 110.3% | 106.7% |
| CN1CCCN=C1/C=C/c1cccs1.O=C(O)c1cc2ccccc2c(Cc2c(O)c(C(=O)O)cc3ccccc23)c1O [PYRANTEL PAMOATE] | 31.41% | 34.84% |
| NC(=O)c1cnccn1 [PYRAZINAMIDE] | 79.24% | 116.6% |
| CN(C)C(=O)Oc1ccc[n+](C)c1.[Br-] [PYRIDOSTIGMINE BROMIDE] | 96.49% | 112% |
| COc1ccc(CN(CCN(C)C)c2ccccn2)cc1.O=C(O)/C=C\C(=O)O [PYRILAMINE MALEATE] | 68.75% | 101.4% |
| CCc1nc(N)nc(N)c1-c1ccc(Cl)cc1 [PYRIMETHAMINE] | 72.59% | 107.4% |
| [O-][n+]1ccccc1[S][Zn][S]c1cccc[n+]1[O-] [PYRITHIONE ZINC] | 92.52% | 94.54% |
| CCC1(CC)C(=O)C=CNC1=O [PYRITHYLDIONE] | 106.5% | 101.3% |
| CC[C@@]1(O)C[C@H](O[C@H]2C[C@H](N(C)C)[C@H](O)[C@H](C)O2)c2c(cc3c(c2O)C(=O)c2c(O)ccc(O)c2C3=O)[C@H]1C(=O)OC [PYRROMYCIN] | 90.45% | 81.89% |
| Cc1cc(/C=C/c2ccc3cc(N(C)C)ccc3[n+]2C)c(C)n1-c1ccccc1.Cc1cc(/C=C/c2ccc3cc(N(C)C)ccc3[n+]2C)c(C)n1-c1ccccc1.O=C([O-])c1cc2ccccc2c(Cc2c(O)c(C(=O)[O-])cc3ccccc23)c1O [PYRVINIUM PAMOATE] | 42.61% | 32.66% |
| CO[C@H]1[C@H](O)[C@@H](O)[C@H](O)[C@H](O)[C@H]1O [QUEBRACHITOL] | 101.4% | 106.9% |
| O=c1c(O)c(-c2ccc(O)c(O)c2)oc2cc(O)cc(O)c12 [QUERCETIN] | 47.09% | 122.6% |
| C[C@@H]1O[C@@H](Oc2c(-c3ccc(O)c(O)c3)oc3cc(O)cc(O)c3c2=O)[C@H](O)[C@H](O)[C@H]1O [QUERCITRIN] | 107.2% | 114.6% |
| CCN(CC)CCCC(C)Nc1c2ccc(Cl)cc2nc2ccc(OC)cc12.Cl.Cl.O.O (configuration not stated) [QUINACRINE HYDROCHLORIDE] | 83.49% | 95.69% |
| O=C1c2ccc(O)c(O)c2C(=O)c2c(O)ccc(O)c21 [QUINALIZARIN] | 57.07% | 75.87% |
| CCOC(=O)[C@H](CCc1ccccc1)N[C@@H](C)C(=O)N1Cc2ccccc2C[C@H]1C(=O)O.Cl [QUINAPRIL HYDROCHLORIDE] | 109.5% | 98.34% |

| SMILES | residual activity [1] | residual activity [2] |
| --- | --- | --- |
| O=C(O)[C@]1(O)C[C@@H](O)[C@@H](O)[C@H](O)C1 [QUINIC ACID] | 95.08% | 98.01% |
| C=C[C@H]1CN2CC[C@H]1C[C@@H]2[C@@H](O)c1ccnc2ccc(OC)cc12.O=C(O)[C@H](O)[C@@H](O)[C@H](O)[C@H](O)CO [QUINIDINE GLUCONATE] | 103.2% | 122% |
| C=C[C@H]1CN2CC[C@H]1C[C@H]2[C@H](OC(=O)OCC)c1ccnc2ccc(OC)cc12 [QUININE ETHYLCARBONATE] | 58.74% | 64.19% |
| C=C[C@H]1CN2CC[C@H]1C[C@H]2[C@H](O)c1ccnc2ccc(OC)cc12.C=C[C@H]1CN2CC[C@H]1C[C@H]2[C@H](O)c1ccnc2ccc(OC)cc12.O.O.O=S(=O)(O)O [QUININE SULFATE] | 92.08% | 99.87% |
| O=C(O)c1cccnc1C(=O)O [QUINOLINIC ACID] | 103.9% | 104.2% |
| O=C(O)/C=C\C(=O)O.c1ccc2nc(N3CCNCC3)ccc2c1 [QUIPAZINE MALEATE] | 102.6% | 102.9% |
| CNC(C)C(O)c1ccccc1.Cl (configuration not stated) [RACEPHEDRINE HYDROCHLORIDE] | 70.72% | 103.1% |
| CCC(=O)NCC[C@@H]1CCc2ccc3c(c21)CCO3 [RAMELTEON] | 127.6% | 113.4% |
| Cc1c(NC(C)C)c(=O)n(-c2ccccc2)n1C [RAMIFENAZONE] | 105.5% | 89.79% |
| COc1ccccc1OCC(O)CN1CCN(CC(=O)Nc2c(C)cccc2C)CC1 (configuration not stated) [RANOLAZINE] | 70.75% | 83.1% |
| O=C(NC(Cc1cc(=O)[nH]c2ccccc12)C(=O)O)c1ccc(Cl)cc1 (configuration not stated) [REBAMIPIDE] | 97.98% | 109.2% |
| CC(=O)Oc1cccc(O)c1 [RESORCINOL MONOACETATE] | 102.7% | 68.79% |
| Oc1cccc(O)c1 [RESORCINOL] | 89.71% | 104.2% |
| Oc1ccc(/C=C/c2cc(O)cc(O)c2)cc1 [RESVERATROL] | 157.6% | 116.7% |
| CC1=C(/C=C/C(C)=C/C=C/C(C)=C/CO)C(C)(C)CCC1 [RETINOL] | 18.99% | 31.96% |
| COc1ccc(-c2coc3c(O)c(OC)ccc3c2=O)cc1 [RETUSIN 7-METHYL ETHER] | 126.8% | 107.3% |
| C=C(C)/C=C1/C=CC(=O)C(C)=C1 [RETUSOQUINONE] | 96.97% | 92.24% |
| COc1cc(O)c2c(=O)c(O)c(-c3ccc(O)c(O)c3)oc2c1 [RHAMNETIN] | 90.81% | 99.02% |
| COc1ccc(/C=C/c2cc(O)cc(O[C@@H]3O[C@H](CO)[C@@H](O)[C@H](O)[C@H]3O)c2)cc1O [RHAPONTIN] | 166.2% | 100.6% |
| CNc1ccccc1C(=O)N1CCc2c([nH]c3ccccc23)C1=O [RHETSININE] | 102% | 98.18% |
| COC1=C(O)C(=O)c2c(cc3oc(C(C)=O)c(O)c3c2O)C1=O [RHODOCLADONIC ACID] | 93.89% | 96.54% |
| CCC(C)C(=O)c1c(O)c(C)c2oc3c(C)c(O)c(C(=O)C(C)CC)c(O)c3c2c1O (configuration not stated) [RHODOMYRTOXIN B] | 8.078% | 37.47% |
| Cc1c(O)c(C(=O)CC(C)C)c2oc3c(C(=O)CC(C)C)c(O)c(C)c(O)c3c2c1O [RHODOMYRTOXIN] | 31.12% | 66.23% |
